Test results: publication PMC9574860, “Chemical Toolkit for PARK7: Potent, Selective, and High-Throughput” (Journal of Medicinal Chemistry, 2022)

Assays:
PARK7 [1] = target: T1, PARK7 (Homo sapiens, UniProt Q99497); assay: FP assay with Rhodamine110 probe JYQ-107 (IC50 and hit validation); assay type: binding; parameters: GST (N, cleaved yes); made in house; host or cells: E. coli BL21(DE3) Rosetta2; conditions: for inhibition at 12.5 µM: read-out: FP assay %Inhibiton (12.5 µM); for inhibition at 37.5 µM: read-out: FP assay %Inhibiton (37.5 µM); for inhibition at 100 µM: read-out: FP assay %Inhibiton (100 µM)
T1 sequence (Q99497 1-189): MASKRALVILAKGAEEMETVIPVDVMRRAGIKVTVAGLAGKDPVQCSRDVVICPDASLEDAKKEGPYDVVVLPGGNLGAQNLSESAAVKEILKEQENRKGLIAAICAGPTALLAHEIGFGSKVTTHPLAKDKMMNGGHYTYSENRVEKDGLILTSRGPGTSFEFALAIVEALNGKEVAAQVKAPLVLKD
Description: The assay was performed using the conditions as described above with a reaction volume of 20 μL per well in triplicate. Stock solutions of JYQ-88 of 1 and 0.1 mM were prepared. […] The FP signal was monitored with a BMG Labtech PHERAstar plate reader (λex/em 480/520 nm) for 2 h.
The validation was performed using the conditions as described above with a reaction volume of 20 μL per well in triplicate. […] The FP signal was monitored with a BMG Labtech PHERAstar plate reader (λex/em 480/520 nm) for 2 h. The relative loss of FP signal compared with reference controls was used to calculate the remaining enzyme activity. Inhibition percentage of these 40 compounds was plotted as a heatmap using GraphPad Prism 9.0.1 software. Color gradients indicate inhibition percentage, no inhibiton (white) and full inhibition (blue).

PARK7 [2] = target: T1, PARK7; assay: DiFMUAc PARK7 activity assay; assay type: biochemical; parameters: GST (N, cleaved yes); made in house; host or cells: E. coli BL21(DE3) Rosetta2; conditions: for inhibition at 12.5 µM: read-out: DiFMuAc assay %Inhibiton (12.5 µM); for inhibition at 37.5 µM: read-out: DiFMuAc assay %Inhibiton (37.5 µM); for inhibition at 100 µM: read-out: DiFMuAc assay %Inhibiton (100 µM)
Description: Compounds were transferred using a Labcyte Echo550 acoustic dispenser to obtain a 12-point serial dilution of 0.001 to 100 μM. Next, PARK7 (15 μL, final concentration of 0.1 μM) was dispensed with a Biotek MultiFlowFX liquid dispenser and incubated for 1 h, followed by dispensing the substrate DiFMUAc (5 μL, final concentration of 300 μM). The fluorescence intensity (FI) signal was monitored with a BMG Labtech PHERAstar plate reader (λex/em 350/450 nm) for 1 h.
The validation was performed in the PBS buffer with a reaction volume of 20 μL per well in triplicate. […] Next, PARK7 (15 μL, final concentration 0.1 μM) was dispensed with a Biotek MultiFlowFX liquid dispenser and incubated for 2 h, followed by dispensing the substrate DiFMUAc (5 μL, final concentration 300 μM). The FI signal was monitored with a BMG Labtech PHERAstar plate reader (λex/em 350/450 nm) for 1 h. The increase of FI signal compared with reference controls was used to calculate the remaining enzyme activity. The inhibition percentage of these 22 compounds was plotted as a heatmap using GraphPad Prism 9.0.1 software. Color gradients indicate inhibition percentage, no inhibiton (white) and full inhibition (blue).

[3] = 12.5 µM compound, PARK7 0.2 μM, 1 h preincubation, JYQ-107 20 nM
[4] = 37.5 µM compound, PARK7 0.2 μM, 1 h preincubation, JYQ-107 20 nM
[5] = 100 µM compound, PARK7 0.2 μM, 1 h preincubation, JYQ-107 20 nM
[6] = 12.5 µM compound, PARK7 0.1 μM, 2 h preincubation, DiFMUAc 300 μM
[7] = 37.5 µM compound, PARK7 0.1 μM, 2 h preincubation, DiFMUAc 300 μM
[8] = 100 µM compound, PARK7 0.1 μM, 2 h preincubation, DiFMUAc 300 μM

Compound | inhibition at 12.5 µM (PARK7 [1]; [3]) [%] | inhibition at 37.5 µM (PARK7 [1]; [4]) [%] | inhibition at 100 µM (PARK7 [1]; [5]) [%] | inhibition at 12.5 µM (PARK7 [2]; [6]) [%] | inhibition at 37.5 µM (PARK7 [2]; [7]) [%] | inhibition at 100 µM (PARK7 [2]; [8]) [%] | FP assay %Inhibiton (12.5 µM) (PARK7 [1]; [3]) [%] | FP assay %Inhibiton (37.5 µM) (PARK7 [1]; [4]) [%] | FP assay %Inhibiton (100 µM) (PARK7 [1]; [5]) [%] | DiFMuAc assay %Inhibiton (12.5 µM) (PARK7 [2]; [6]) [%] | DiFMuAc assay %Inhibiton (37.5 µM) (PARK7 [2]; [7]) [%] | DiFMuAc assay %Inhibiton (100 µM) (PARK7 [2]; [8]) [%] | other results
O=C(CCl)c1ccc(F)c(C(=O)CCl)c1 [Z2768504793] | 100 | 100 | 100 | 98 | 98.5 | 95.9 | – | – | – | – | – | – | –
O=C(CSC(F)(F)F)Nc1cccc(S(=O)(=O)F)c1 [Z1713569375] | – | – | – | – | – | – | 98.9 | 100.0 | 100.0 | 81.4 | 49.1 | 97.1 | –
CSC1(C(=O)Nc2cccc(S(=O)(=O)F)c2)CC1 [Z1832812427] | – | – | – | – | – | – | 98.3 | 100.0 | 100.0 | 98.0 | 92.6 | 100.0 | –
CC1=NOC(=O)C1CC(=O)O (stereo not shown) [Z367451146] | 100 | 100 | 100 | 92.2 | 100 | 100 | – | – | – | – | – | – | –
Cc1ccc(C(=O)O)cc1S(=O)(=O)F [Z3242849759] | – | – | – | – | – | – | 100.0 | 100.0 | 100.0 | 93.6 | 95.8 | 93.1 | –
CCN(c1ccc(NC(=O)CCl)cc1)C(C)C [Z56896170] | 100 | 100 | 100 | 81.4 | 94.9 | 97.4 | – | – | – | – | – | – | –
Cc1conc1NS(=O)(=O)c1cccc(S(=O)(=O)F)c1 [Z2509450956] | – | – | – | – | – | – | 100.0 | 100.0 | 100.0 | 98.5 | 98.2 | 97.5 | –
CCCc1nnc(NS(=O)(=O)c2cccc(S(=O)(=O)F)c2)o1 [Z2509455014] | – | – | – | – | – | – | – | – | – | – | – | – | inhibition at 12.5 µM (PARK7 [1]): 100%; inhibition at 37.5 µM (PARK7 [1]): 100%; inhibition at 100 µM (PARK7 [1]): 100%; inhibition at 12.5 µM (PARK7 [2]): 97.8%; inhibition at 37.5 µM (PARK7 [2]): 99.3%; inhibition at 100 µM (PARK7 [2]): 96.5%
O=C(CCl)C1CCOCC1 [Z2491498268] | 100 | 100 | 100 | 94.3 | 95.5 | 93.2 | – | – | – | – | – | – | –
CCn1ncnc1NS(=O)(=O)c1cccc(S(=O)(=O)F)c1 [Z2509462762] | – | – | – | – | – | – | – | – | – | – | – | – | inhibition at 12.5 µM (PARK7 [1]): 100%; inhibition at 37.5 µM (PARK7 [1]): 100%; inhibition at 100 µM (PARK7 [1]): 100%; inhibition at 12.5 µM (PARK7 [2]): 100%; inhibition at 37.5 µM (PARK7 [2]): 100%; inhibition at 100 µM (PARK7 [2]): 100%
O=S(=O)(F)c1cccc(S(=O)(=O)Nc2cccnc2O)c1 [Z1764375816] | – | – | – | – | – | – | – | – | – | – | – | – | inhibition at 12.5 µM (PARK7 [1]): 100%; inhibition at 37.5 µM (PARK7 [1]): 100%; inhibition at 100 µM (PARK7 [1]): 100%; inhibition at 12.5 µM (PARK7 [2]): 97.1%; inhibition at 37.5 µM (PARK7 [2]): 99.2%; inhibition at 100 µM (PARK7 [2]): 100%
O=[N+]([O-])c1cccc(S(=O)(=O)F)c1 [Z3243697698] | – | – | – | – | – | – | 100.0 | 100.0 | 100.0 | 100.0 | 100.0 | 100.0 | –
O=C1C(=O)N(CCc2ccccc2)c2ccc(F)cc21 [STK793590, reference compound] | – | – | – | – | – | – | – | – | – | – | – | – | IC50 (PARK7 [2]; DiFMUAc assay, PARK7 0.1 μM, 1 h preincubation, DiFMUAc 300 μM): 190 nM
CC1CCC(N(C)C(=O)CCl)CC1 (stereo not shown) [Z85923410] | 85.7 | 100 | 100 | 81.8 | 94.6 | 97.4 | – | – | – | – | – | – | –
CC(C)(C)c1ccc(NC(=O)CCl)cc1 [Z56922153] | 100 | 100 | 100 | 87.1 | 94.2 | 100 | – | – | – | – | – | – | –
